According to patent US5629173A, “Methods of use of serine protease variants having peptide ligase activity” (priority 1995, dated 1997):
Residues, ends and D or L forms follow the SMILES beside them.

B1: wild type: wild type subtilisin from Bacillus amyloliquefaciens (subtilisin BPN') (protein, UniProt P00782 108-382, looked up)
Subtilisin BPN': AQSVPYGVSQIKAPALHSQGYTGSNVKVAVIDSGIDSSHPDLKVAGGASMVPSETNPFQDNNSHGTHVAGTVAALNNSIGVLGVAPSASLYAVKVLGADGSGQYSWIINGIEWAIANNMDVINMSLGGPSGSAALKAAVDKAVASGVVVVAAAGNEGTSGSSSTVGYPGKYPSVIAVGAVDSSNQRASFSSVGPELDVMAPGVSIQSTLPGNKYGAYNGTSMASPHVAGAAALILSKHPNWTNTQVRSSLENTTTKLGDSFYYGKGLINVQAAAQ

Test system: not listed separately
Assay: Esterase activity, hydrolysis of activated ester substrate
Format: biochemical
Conditions: ratio of the apparent second order rate constants (kcat/KM)
Description: The esterase and amidase activities were obtained from initial rate measurements using a Kontron Uvikon 860 spectrophotometer. The assay for esterase activity utilized the substrate s-Ala-Ala-Pro-Phe-Sbz at (25±0.2° C.) in 100 mM Tris-HCl (pH 8.60), 4% (v/v) dimethylsulfoxide, 0.005% (v/v) Tween 80. With the non-cysteine containing proteases, DTNB (Ellman (1959), Arch. Biochem. Biophys., 82, 70-77) was added to a concentration of 37.5 μM to visualize the release of thiolbenzoate upon hydrolysis of the substrate. […] The amidase activities were measured under identical conditions by following the increase in absorbance at 412 nm upon hydrolysis of p-nitroanilide from s-Ala-Ala-Pro-Phe-pNA.
In the case of B1, the esterase/amidase is reported as 4.8.

Target: T1, peptide ligase acylated by s-Ala-Ala-Pro-Phe (Bacillus amyloliquefaciens, UniProt P00782, P332A/S328C)
T1 construct: made in house
T1 sequence (P00782 108-382 S328C/P332A): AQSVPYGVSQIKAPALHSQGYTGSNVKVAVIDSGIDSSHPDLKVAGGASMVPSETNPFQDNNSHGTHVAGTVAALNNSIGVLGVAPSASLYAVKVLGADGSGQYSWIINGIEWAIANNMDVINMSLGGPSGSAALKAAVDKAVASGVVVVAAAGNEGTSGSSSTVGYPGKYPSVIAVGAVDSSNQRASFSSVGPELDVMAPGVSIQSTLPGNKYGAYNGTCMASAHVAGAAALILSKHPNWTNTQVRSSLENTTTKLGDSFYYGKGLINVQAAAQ
Assay: Aminolysis efficiency of di- and tri-amino acid peptide nucleophiles (Table IV)
Format: biochemical
Conditions: not given
Description: Enzymatic ligation of peptides were performed at (25±0.2° C.) in 90 mM Tricine (pH 8.0), 2% (v/v) dimethylacetamide, 0.005% (v/v) Tween 80. The comparison between substrates having different leaving groups was simplified by measuring initial reaction rates at a low substrate concentrations (70-75 μM) and at a higher concentration (1.33 mM) where rates are proportional to kcat/KM and the kcat, respectively (Fersht (1977) in Enzyme Structure and Mechanism, W. H. Freeman & Co. USA). The higher substrate concentration may still be below the KM for some of the substrates, so that values for kcat are less accurate. The aminolysis with di- and tripeptides was performed at low peptide concentrations. The aminolysis rate V=kaminolysis [N][E-Ac]/KN, where [N] is the nucleophile concentration, [E-Ac] is the concentration of acyl-enzyme intermediate and KN is the dissociation constant for the binding of the nucleophile to the acyl-enzyme intermediate (Riechmann and Kasche (1985), Biochem. Biophys. Acta., 830, 164-172). Since KN=[N][E-Ac]/[N·E-Ac] a change in [N] will result in a change in [E-Ac] but at low [N], [E-Ac]>>[N·E-Ac] and kaminolysis /KN (the apparent second order rate constants for the reaction between the different nucleophile and the acyl-enzyme intermediate) may be compared. The concentrations of the peptide nucleophiles, and the calibration of the absorbance data for the different ligation products was obtained from amino acid composition analysis. The rates of peptide ligation were measured at four or five different concentrations for each nucleophile.
Ligation reactions were analyzed by taking aliquots at different times and analyzing the peptide products by C-18 reversed phase HPLC. Peptides were eluted in a gradient of acetonitrile/0.1% TFA in water/0.1% TFA and the absorbance at 214 nm monitored. Amino acid composition analysis was used to confirm both the hydrolysis and aminolysis products and to calibrate the absorbance values. The structures of the hydrolysis and aminolysis products (using the dipeptide Ala-Phe-amide as a nucleophile) were confirmed by mass spectrometrical analysis.
In the case of N=C(N)NCCC[C@H](N)C(=O)N[C@@H](Cc1ccccc1)C(N)=O [RF, Arg-Phe-amide], the “faster to aminolyze than Arg-Gly” value is reported as about 100 fold.

Same assay, conditions: compared with NH2-Gly-Phe-amide
With NC(=O)CNC(=O)[C@@H](N)Cc1ccccc1 [FG, Phe-Gly-amide] (H-Phe-Gly-NH2) the “quality as ligation substrate, in words” value was “extremely poor ligation substrates”.

Same assay, conditions: peptides amidated at the carboxy terminus; low peptide concentrations; pH 8.0, 25 C
In the case of C[C@H](N)C(=O)N[C@@H](Cc1ccccc1)C(=O)N[C@@H](C)C(N)=O [AFA, Ala-Phe-Ala-amide] (H-Ala-Phe-Ala-NH2), the “apparent second order rate constants for the reaction of the nucleophile with the acylated peptide ligase, compared” value (“apparent second order rate constants … compared” for short) is reported as 2.0. In the case of NC(=O)CNC(=O)[C@@H](N)Cc1ccccc1 [FG, Phe-Gly-amide] (H-Phe-Gly-NH2), the “apparent second order rate constants … compared” value is reported as 0.006. In the case of CC(C)C[C@H](N)C(=O)N[C@@H](Cc1ccccc1)C(=O)N[C@@H](CC(=O)O)C(N)=O [LFD, Leu-Phe-Asp-amide] (H-Leu-Phe-Asp-NH2), the “apparent second order rate constants … compared” value is reported as 0.3. For C[C@H](NC(=O)CN)C(N)=O [GA, Gly-Ala-amide] (H-Gly-Ala-NH2), the “apparent second order rate constants … compared” value was 0.1. In the case of CC(C)C[C@H](NC(=O)CN)C(N)=O [GL, Gly-Leu-amide], the “apparent second order rate constants … compared” value is reported as 0.3. For N=C(N)NCCC[C@H](N)C(=O)N[C@@H](Cc1ccccc1)C(N)=O [RF, Arg-Phe-amide], the “apparent second order rate constants … compared” value was 2.0. For C[C@H](N)C(=O)N[C@@H](Cc1ccccc1)C(N)=O [AF, Ala-Phe-amide], the “apparent second order rate constants … compared” value was 1.0. In the case of NCC(=O)N[C@@H](Cc1ccccc1)C(N)=O [GF, Gly-Phe-amide] (H-Gly-Phe-NH2), the “apparent second order rate constants … compared” value is reported as 0.8. For CC(C)C[C@H](N)C(=O)N[C@@H](Cc1ccccc1)C(N)=O [LF, Leu-Phe-amide] (H-Leu-Phe-NH2), the “apparent second order rate constants … compared” value was 0.3. In the case of N=C(N)NCCC[C@H](N)C(=O)NCC(N)=O [RG, Arg-Gly-amide] (H-Arg-Gly-NH2), the “apparent second order rate constants … compared” value is reported as 0.04.
